Experimental findings from patent publication US8470889B2 (TRT Pharma Inc., priority 2008, dated 2013) are described below.

One experiment has as its target T1, H874Y mutated AR (Homo sapiens, UniProt P10275, H875Y).
T1 sequence (P10275 1-920 H875Y): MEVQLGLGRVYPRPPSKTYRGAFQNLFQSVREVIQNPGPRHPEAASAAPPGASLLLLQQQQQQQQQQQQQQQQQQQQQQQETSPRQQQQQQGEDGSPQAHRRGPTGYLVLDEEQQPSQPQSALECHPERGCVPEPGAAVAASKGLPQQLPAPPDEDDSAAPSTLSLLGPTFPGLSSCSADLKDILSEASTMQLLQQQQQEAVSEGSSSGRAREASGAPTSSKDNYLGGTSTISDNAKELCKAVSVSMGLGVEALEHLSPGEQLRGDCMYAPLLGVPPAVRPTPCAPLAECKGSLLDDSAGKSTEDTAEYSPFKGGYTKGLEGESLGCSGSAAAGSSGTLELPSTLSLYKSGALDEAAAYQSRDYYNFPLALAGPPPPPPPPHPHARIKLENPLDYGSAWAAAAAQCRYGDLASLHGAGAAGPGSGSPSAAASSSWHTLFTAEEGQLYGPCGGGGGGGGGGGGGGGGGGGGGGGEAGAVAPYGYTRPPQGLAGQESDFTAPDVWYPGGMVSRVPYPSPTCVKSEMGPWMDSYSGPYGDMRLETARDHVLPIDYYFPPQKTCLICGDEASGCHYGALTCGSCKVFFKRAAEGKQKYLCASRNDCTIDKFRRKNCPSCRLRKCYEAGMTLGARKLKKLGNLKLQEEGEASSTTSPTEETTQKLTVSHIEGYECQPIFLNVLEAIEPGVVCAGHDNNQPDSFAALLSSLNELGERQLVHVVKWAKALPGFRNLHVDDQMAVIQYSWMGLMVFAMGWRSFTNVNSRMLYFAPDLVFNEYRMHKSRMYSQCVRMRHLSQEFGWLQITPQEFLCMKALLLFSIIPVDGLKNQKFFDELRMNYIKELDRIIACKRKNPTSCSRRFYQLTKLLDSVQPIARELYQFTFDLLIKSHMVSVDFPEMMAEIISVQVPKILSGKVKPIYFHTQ
Briefly: Luciferase assay for AR transactivation, H874Y AR, PC-3 cells. It counts as cell-based. Particulars: 0.1 nM DHT; for suppression of DHT-induced transactivation of H874Y AR: test compound 0.1-1 μM, PC-3 cells; for Antiandrogenic activity evaluated by luciferase assay in PC-3 cells H874Y: test compound 1 μM. As to the method: (§1) PC-3 cells were transiently transfected with pCMV-MMTV-Luc, Renilla null luciferase and AR expressing plasmids. The cells were treated with 0.1 nM DHT with and without test compound for 24 hr. Relative luciferase activity was determined by dual luciferase assay kit (Promega), standardized to Renilla luciferase control and normalized to 0.1 nM DHT without test compound (100%).
(§2) After 16 h, the cells were treated with 0.1 nM of DHT and test compounds at the designated concentration. After further 24 h, the cells were lysed in 100 μL/well passive lysis buffer, and 20 μL of the cell lysates was used for detection of the luciferase activity using Dual Luciferase Assay System (Promega). All experiments were run in triplicate. Relative luciferase activity is determined as the ratio of inducible firefly luciferase luminescence divided by the luminescence of the renilla luciferase control normalized to 0.1 nM DHT without test compounds.
(§3) The potency of antagonistic activity: ++>+.

The subject of a further experiment is LNCaP cells. Briefly: MTT cell growth inhibition, LNCaP.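 Note: MTT formazan absorbance at 600 nm read after 72 h of compound exposure, IC50 fitted by nonlinear regression of dose-response curves, samples run in triplicate.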
A further experiment has as its target T2, T877A mutated AR (Homo sapiens, UniProt P10275, T878A).
T2 sequence (P10275 1-920 T878A): T1 sequence (P10275 1-920 H875Y) with Y875H, T878A
Briefly: Luciferase assay for AR transactivation, T877A AR, PC-3 cells. It counts as cell-based. Particulars: 0.1 nM DHT; for suppression of DHT-induced transactivation of T877A AR: test compound 0.1-1 μM, PC-3 cells; for Antiandrogenic activity evaluated by luciferase assay in PC-3 cells T877A: test compound 1 μM. As to the method:
as §1, §2, §3

Setting [1] is: read-out: Cellular IC50 (μM) LNCaP, Table 9.

Numbering of substitutions follows the chain as printed. Like-named read-outs stand apart in the source and are kept apart here.

Procedure for LNCaP cells: MDA PCa 2b was seeded at the same density in medium BRFF-HPC1 (Athena Enzyme Systems, Baltimore, Md., USA) supplemented with 20% FBS. After overnight incubation, the medium was changed to a fresh medium containing different concentrations of test compounds diluted from stock DMSO solution. The final concentration of DMSO is 0.5%. After 72 h of incubation with test compounds, 20 μL of 3-(4,5-dimethyl thiazol-2-yl)-2,5-diphenyltetrazolium bromide (MTT) solution (5 mg/mL in PBS) were added to each well and incubated further for 2 h. Next, the supernatant was aspirated and the MTT formazan formed by metabolically viable cells was dissolved in 100 μL of isopropanol. The plates were mixed for 30 min, and the absorbance was measured at 600 nm on a plate reader (FLUOstar OPTIMA, BMG LabTech). All samples were in triplicate. The IC50 values were determined from dose-response curves by nonlinear regression using PRISM v5.00 (GraphPad Software Inc, La Jolla, Calif., USA).
The in vitro cytotoxicity of 1-20 were evaluated by MTT assays in a panel of prostate cancer cell lines, including LNCaP, MDA PCa 2b, 22Rv1, C4-2B and PC-3.

One may read the IC50 as the concentration that inhibits the measured activity by half. Turning to `CC1=C(/C=C/C(=O)/C=C/c2cccc(C(F)(F)F)c2)C(C)(C)CCC1O` (racemic) [Compound B25], the “suppression of DHT-induced transactivation of H874Y AR” value (“suppression … of H874Y AR” for short) at H874Y mutated AR is on record as “dose-dependent activity”. The IC50 with LNCaP cells (read-out: IC50 in LNCaP cells) came out at 0.74 µM. Moreover, at T877A mutated AR, the “suppression of DHT-induced transactivation of T877A AR” value (“suppression … of T877A AR” below) is on record as “dose-dependent activity”.

Consider `CC1(C)CCC(O)C=C1/C=C/C(=O)/C=C/c1cnc2ccccc2c1` (stereo not shown) [Compound B95], for which, at H874Y mutated AR, the “suppression … of H874Y AR” value was “effective” and the “Antiandrogenic activity evaluated by luciferase assay in PC-3 cells H874Y” value is listed as “++”. The IC50 in the experiment with LNCaP cells (setting [1]) amounted to 0.63 µM. On T877A mutated AR, the “suppression … of T877A AR” value was “effective” and the “Antiandrogenic activity evaluated by luciferase assay in PC-3 cells T877A” value is listed as “++”.

On to `CC1(C)CCC(O)C=C1/C=C/C(=O)/C=C/c1csc2ccccc12` (stereo not shown) [Compound B92], for which, at H874Y mutated AR, the “suppression … of H874Y AR” value is “pure antagonists” and the “Antiandrogenic activity evaluated by luciferase assay in PC-3 cells H874Y” value is given as “+”. Besides, the IC50 in the experiment with LNCaP cells (setting [1]) is 1.1 µM. Further, on T877A mutated AR, the “suppression … of T877A AR” value is “pure antagonists” and the “Antiandrogenic activity evaluated by luciferase assay in PC-3 cells T877A” value was “++”.
